Laboratory results from patent US20180169100A1, “Cancer Stem Cell Targeting Compounds” (Godavari Biorefineries Limited, priority 2014, published 2018).

How the values were obtained:
Assay type in all cases: cell-based
[1] = system: Bu25tk; test: In vitro colorimetric cell death assay (MTT); conditions: Bu25tk cervical cancer cell line, 48 hours with compound, read-out: IC 50 Value
Method: (§1) For assessing cell viability in vitro colorimetric cell death assay was carried out where the cells were grown in two-dimensional surface as follows. Cancer cells with plating efficiency as mentioned herein below for respective cell lines were plated in a 96 well plate. The plate was incubated for 24 hours in a 5% CO2 atmosphere at 37 degrees Celsius, a range of concentrations from 10^−3 M to 10^−6 M of the compound Ethyl-5,6-dimethyl-4-(piperidin-1-yl)thieno[2,3-d]pyrimidine was added to the wells, the plates were incubated further for 48 hours in a 5% CO2 atmosphere, the plate was centrifuged twice at 3000 rpm for 3 minutes, the supernatant fluid was discarded, 100 uL of 0.5 mg/mL 3-(4,5-Dimethylthiazol-2-yl)-2,5-Diphenyltetrazolium Bromide (MTT) solution was added and the plate was incubated for 4 hours in a 5% CO2 atmosphere at 37 degrees Celsius. The plate was then centrifuged twice at 3000 rpm for 3 minutes, supernatant was aspirated very carefully, 200 uL Dimethyl sulfoxide (DMSO) was added to each well to solubilize MTT crystals and mixed well by shaking the plate, the plate was incubated for 10 minutes in a 5% CO2 atmosphere at 37 degrees Celsius, the plate was placed on the shaker of an ELISA plate reader and the absorbance at 570 nm was measured, the percentage of viable cells remaining was calculated by first subtracting the background absorbance then comparing to the absorbance of a non-drug-treated cell sample, and the results were plotted on a graph to determine the IC50 for the compound Ethyl-5,6-dimethyl-4-(piperidin-1-yl)thieno[2,3-d]pyrimidine which was calculated by regression analysis.

[2] = system: Colo320; test: In vitro colorimetric cell death assay (MTT); conditions: Colo320 colon cancer cell line, 48 hours with compound, read-out: IC 50 Value
Method: as §1

[3] = system: DU145; test: In vitro colorimetric cell death assay (MTT); conditions: DU145 prostate cancer cell line, 48 hours with compound, read-out: IC 50 Value
Method: as §1

[4] = system: HeLa; test: In vitro colorimetric cell death assay (MTT); conditions: HeLa cervical cancer cell line, 48 hours with compound, read-out: IC 50 Value
Method: as §1

[5] = system: Hep3B; test: In vitro colorimetric cell death assay (MTT); conditions: Hep3B hepatic cancer cell line, 48 hours with compound, read-out: IC 50 Value
Method: as §1

[6] = system: L929; test: In vitro colorimetric cell death assay (MTT); conditions: L929 fibroblast cancer cell line, 48 hours with compound, read-out: IC 50 Value
Method: as §1

[7] = system: LNCaP; test: In vitro colorimetric cell death assay (MTT); conditions: LNCaP prostate cancer cell line, 48 hours with compound, read-out: IC 50 Value
Method: as §1

[8] = system: MCF-7; test: In vitro colorimetric cell death assay (MTT); conditions: MCF-7 breast cancer cell line, 48 hours with compound, read-out: IC 50 Value
Method: as §1

[9] = system: MDAMB231; test: In vitro colorimetric cell death assay (MTT); conditions: MDAMB231 breast cancer cell line, 48 hours with compound, read-out: IC 50 Value
Method: as §1

[10] = system: PC3; test: In vitro colorimetric cell death assay (MTT); conditions: PC3 prostate cancer cell line, 48 hours with compound, read-out: IC 50 Value
Method: as §1

[11] = system: SiHa; test: In vitro colorimetric cell death assay (MTT); conditions: SiHa cervical cancer cell line, 48 hours with compound, read-out: IC 50 Value
Method: as §1

[12] = system: T47D; test: In vitro colorimetric cell death assay (MTT); conditions: T47D breast cancer cell line, 48 hours with compound, read-out: IC 50 Value
Method: as §1

[13] = system: primary spheres of DU145; test: 3D Primary Sphere Assay; conditions: GC 49(±5), GCD 41(±4)
Method: (§2) The ability of cancer stem cells to form spheres in a serum free media was determined by 3D Primary Sphere Assay, where the spheres were in a suspended form. Through this assay the potency of the compound Ethyl-5,6-dimethyl-4-(piperidin-1-yl)thieno[2,3-d]pyrimidine to kill cancer stem cells in comparison to the standard chemotherapeutic drug such as Cisplatin was evaluated as follows. The Cells were grown in three dimensions on a plastic substrate, harvested in suspension in serum-free media, then the cells in the sample were trypsinised and a single cell suspension was formed by passing through a cell strainer. The cells were diluted according to the predetermined plating efficiency for the cell line being studied by suspending the cells in stem cell culture medium. 100 uL of this suspension was added into each well of a 96 well suspension plate, and the plate was incubated at 37 degrees Celsius in 5% CO2 atmosphere for 24 hours, then 2 uL of appropriate concentrations of the drugs were added into each respective well along with 100 uL of stem cell culture medium, and the plates incubated at 37 degrees Celsius under 5% CO2 atmosphere for 72 hours. 2.5 uL of the appropriate drug concentration was added to each respective well along with 50 uL of stem cell culture medium and the plates were incubated at 37 degrees Celsius under 5% CO2 atmosphere for 72 hours. 3 uL of the appropriate concentration of the compound as mentioned below was added to each respective well along with 50 uL of stem cell culture medium, incubated at 37 degrees Celsius under 5% CO2 atmosphere for 72 hours, the spheres formed were observed under a microscope, counted and scored by size. Results of the in vitro 3D sphere forming stem cell assay were set forth in a tabular manner. […] GC refers to a growth control performed in the absence of drug or solvent (DMSO). GCD refers to a growth control performed in the absence of drug, but in the presence of DMSO.

[14] = system: primary spheres of MDA MB231; test: 3D Primary Sphere Assay; conditions: GC 92(±7), GCD 83(±6)
Method: as §2

[15] = system: primary spheres of PC3; test: 3D Primary Sphere Assay; conditions: GC 120(±10), GCD 103(±9)
Method: as §2

[16] = system: CD44 population of PC3 cells; test: Flow cytometry study, CD44/CD24 staining; conditions: PC3 cells exposed to IC25 drug conc. for 48 hrs; untreated 85.61% cells CD44
Method: For Flow cytometry assay the PC3 cancer cells (0.35×106) were cultured in Dulbecco's Modified Eagle's medium (DMEM) with 10% Fetal Bovine Serum (F.B.S) in 60 mm tissue culture plates for 24 hrs in 5% CO2 at 37° C. Cells were then exposed to IC25 drug conc. of Cisplatin in duplicates. Similarly other sets of cells were treated with IC25 drug conc. of Ethyl-5,6-dimethyl-4-(piperidin-1-yl)thieno[2,3-d]pyrimidine for 48 hrs. and incubated in 5% CO2 at 37° C. for 48 hrs. Appropriate controls that is growth control (cells+DMEM medium) and solvent control (cells+control DMEM medium+DMSO) and medium control (DMEM) were also kept along with the experimental sets. After 48 hrs the cells were observed under the microscope, trypsinised, washed with Dulbecco's phosphate-buffered saline (D.P.B.S.) 50 μl of cells were taken for each set and 5 μl of each of the CD44-PE labeled and CD24-FITC labeled antibodies were added. The sets were incubated for 45 mins at 4° C. for proper binding of antibodies. After incubation the cells were washed with 200 μl of D.P.B.S by centrifugation. The supernatant was discarded and the cells were finally suspended in 300 μl of FACS buffer (4% Fetal Bovine Serum in D.P.B.S). Samples were kept at 4° C. in dark till they were acquired on FACS. Acquisition was done on BD-FACS Accuri C6.

[17] = system: CD44 population of DU145 cells; test: Flow cytometry study, CD44/CD24 staining; conditions: DU145 cells exposed to IC25 drug conc. for 48 hrs; untreated 70.18% cells CD44

For `N.N.[Cl][Pt][Cl]` [Cisplatin], which IC50 [1] is on record?
Its IC50 is 59.3 µM.

And the IC50 [2]?
The IC50 was 38.3 µM.

What about the IC50 [3] of the same molecule?
Its IC50 is 31.6 µM.

What about the IC50 [4] of the same molecule?
The IC50 was 33.9 µM.

And the IC50 [5]?
Its IC50 is 37.6 µM.

And the IC50 [6]?
Its IC50 is 29 µM.

What about the IC50 [7] of the same molecule?
Its IC50 is 52.5 µM.

What about the IC50 [8] of the same molecule?
The IC50 was 29.2 µM.

What about the IC50 [9] of the same molecule?
The IC50 was 48.4 µM.

And the IC50 [10]?
Its IC50 is 11.2 µM.

And the IC50 [11]?
The IC50 was 35.5 µM.

And the IC50 [12]?
Its IC50 is 58.9 µM.

What about the “total number of spheres formed” value ([13]; DU145, final conc. 1.25 μM) of the same molecule?
The value was 48(±5).

What about the “total number of spheres formed” value ([13]; DU145, final conc. 12.5 μM) of the same molecule?
The value was 41(±5).

And the “total number of spheres formed” value ([13]; DU145, final conc. 125 μM)?
The value was 23(±4).

And the “total number of spheres formed” value ([13]; DU145, final conc. 1250 μM)?
Its value is 12(±3).

What about the “total number of spheres formed” value ([14]; MDA MB231, final conc. 1.25 μM) of the same molecule?
Its value is 76(±8).

What about the “total number of spheres formed” value ([14]; MDA MB231, final conc. 12.5 μM) of the same molecule?
The value was 52(±6).

What about the “total number of spheres formed” value ([14]; MDA MB231, final conc. 125 μM) of the same molecule?
The value was 39(±3).

What about the “total number of spheres formed” value ([14]; MDA MB231) of the same molecule?
Its value is 25(±5).

And the “total number of spheres formed” value ([15]; PC3, final conc. 1.25 μM)?
Its value is 109(±6).

And the “total number of spheres formed” value ([15]; PC3, final conc. 12.5 μM)?
Its value is 107(±9).

What about the “total number of spheres formed” value ([15]; PC3, final conc. 125 μM) of the same molecule?
The value was 88(±6).

And the “total number of spheres formed” value ([15]; PC3)?
The value was 74(±7).

What about the “effect on CD44 population” value [16] of the same molecule?
Its value is “did not have much effect”.

And the “effect on CD44 population” value [17]?
The value was “did not have much effect”.
